Laboratory results published in patent US12059429B2, “Hornerin: a novel non-VEGF mediated angiogenic protein expressed in both human and mouse angiogenic endothelial cells and human pancreatic cancer cells” (University of Virginia Patent Foundation, priority 2018, dated 2024).

Tests used:
Format in all cases: in vivo, mouse
[1] = tested on: hornerin transcript; assay: qPCR of hornerin transcript in FACS-sorted CD31+CD45- tumor endothelial cells; conditions: vs Scr siRNA, 20 hours after injection
Experimental: Day 10 tumors were injected with either Scr siRNA or Hrnr siRNA and excised 20 hours later. The tumors were immediately washed in PBS (+Mg/+Ca), minced with scalpels, treated with Collagenase Type II (Worthington Biochemical Corporation, Lakewood, NJ, USA; (2.0 mg/mL) serum-free DMEM, 100 minutes at 37° C.), and filtered through a 40 μm cell strainer. The cell suspension (filtrate) was incubated with the following antibody/dye panel for FACS; anti-CD45 AF488 (1:100; Biolegend, San Diego, CA, USA, 103121, clone 30-F11), anti-CD31 AF647 (1:100; Biolegend, 102415, clone 390), LIVE/DEAD violet stain (1:200; Thermo Fisher). Flow cytometry analysis was completed on the Cyan ADP LX (Beckman Coulter). Compensation and data analysis was completed using FlowJo software (Ashland, OR, USA). […]
RNA was isolated from FACS-sorted CD31^+CD45^− cells according to the manufacturer's protocol (Qiagen mini-prep kit), and concentration and purity were determined using a NanoDrop Spectrophotometer (Thermo Fisher). Complimentary DNA (cDNA) was generated (Qiagen QuantiTect Reverse Transcription Kit) and subjected to pre-amplification (SsoAdvanced PreAmp Supermix, Bio-Rad). […] Melt curve analysis was performed on the hornerin and cyclophilin primer sets prior to data collection and normalized gene expression was determined by the delta delta Ct method.

[2] = tested on: hornerin; assay: Immunofluorescent microscopy of hornerin protein in tumor sections; conditions: vs Scr siRNA
Experimental: Tumor sections were deparaffinized, rehydrated, heated in antigen retrieval solution (Vector), blocked for 30 minutes in blocking buffer, and incubated with anti-CD34 antibody (Abcam, ab8158, clone MEC14.7; 1:100) in blocking buffer overnight at 4° C. The sections were then incubated with goat anti-rat FITC secondary antibody (Abcam, ab6840; 1:100) in blocking buffer prior to mounting with Prolong Gold Antifade reagent (Invitrogen). Anti-actin, α-smooth muscle Cy3 antibody (Sigma, C6198, clone 1A4; 1:200) was added to the primary antibody solution if assaying for alpha-smooth muscle actin. […] Images were collected using a Nikon TE 2000-E2 microscope (Nikon Instruments) equipped with a Melles Griot Argon Laser System (Melles Griot, Carlsbad, CA, USA) and a Nikon D-Eclipse C1 confocal attachment and analyzed by Measurement Tool in Image J. To measure the relative hornerin expression in tumor vessels, three vessel segments per image were isolated and their mean intensity and area were measured and recorded. A weighted mean intensity was calculated to correct for differences in selected area. To measure the relative hornerin expression in tumor tissue, the mean intensity from three square sections (75×75 pixel) of tumor tissue per image was measured and recorded.

[3] = tested on: tumor vessels; assay: Tumor vessel parameters in L3.6pl tumor sections (CD34, ACTA2, RAVE analysis)
Experimental: Following completion of the treatment schedule, the mice were killed, cardiac perfused, and the tumors were excised and fixed in formalin overnight. The tumors were paraffin embedded and cut into 5 (thin) or 50 μm (thick) sections. Tumor vessel parameters were evaluated in the following number of tumors for each treatment cohort: (Scr siRNA/ctrl., N=10; Hrnr siRNA/ctrl., N=10; Scr siRNA/AV-951, N=4; Hrnr siRNA/AV-951, N=4).
Tumor sections were deparaffinized, rehydrated, heated in antigen retrieval solution (Vector), blocked for 30 minutes in blocking buffer, and incubated with anti-CD34 antibody (Abcam, ab8158, clone MEC14.7; 1:100) in blocking buffer overnight at 4° C. The sections were then incubated with goat anti-rat FITC secondary antibody (Abcam, ab6840; 1:100) in blocking buffer prior to mounting with Prolong Gold Antifade reagent (Invitrogen). Anti-actin, α-smooth muscle Cy3 antibody (Sigma, C6198, clone 1A4; 1:200) was added to the primary antibody solution if assaying for alpha-smooth muscle actin. To compare hornerin expression in vessels and tumor tissue treated with Hrnr siRNA and Scr siRNA, thin paraffin sections were deparaffinized and stained with anti-CD34 and anti-hornerin antibodies described. Images were collected using a Nikon TE 2000-E2 microscope (Nikon Instruments) equipped with a Melles Griot Argon Laser System (Melles Griot, Carlsbad, CA, USA) and a Nikon D-Eclipse C1 confocal attachment and analyzed by Measurement Tool in Image J. To measure the relative hornerin expression in tumor vessels, three vessel segments per image were isolated and their mean intensity and area were measured and recorded. A weighted mean intensity was calculated to correct for differences in selected area. To measure the relative hornerin expression in tumor tissue, the mean intensity from three square sections (75×75 pixel) of tumor tissue per image was measured and recorded.
Vessel parameters were measured using RAVE software (Seaman et al., 2011). For detection of proliferation and apoptosis, the sections were incubated with the primary antibodies anti-Ki67 (Abcam, ab15580; 1:200) or anti-cleaved caspase 3 (Cell Signaling, 9661; 1:200), respectively, overnight at 4° C. followed by incubation with anti-rabbit AF594 (Abcam, 150080; 1:200).

[4] = L3.6pl tumors, RAVE, vs Scr siRNA
[5] = four-group combination experiment, vs control

5′-GCAUGGAUCUUGUUGCGGUTT-3′ [Hrnr siRNA]
reduction in hornerin transcript [1]: 78%
decrease in hornerin expression in endothelial cells ([2]; CD34+ tumor vessels): 30%
hornerin expression in epithelial cells from tumors [2]: no difference
increase in ACTA2 coverage of vessels ([3]; ACTA2-positive pixels / CD34-positive pixels, vs Scr siRNA): 2.3 fold
number of vessels per field ([3]; CD34-positive vessels per 0.4 mm^2 field, vs Scr siRNA): not different
fractal dimension (tortuosity) [3, 4]: reduced
vessel radius [3, 4]: overall reduction in vessel radius
vessel volume fraction (VVF) [3, 4]: reduced
number of vessels per field [3, 5]: no change in the number of vessels per field
vessel radii [3, 5]: smaller radii
